# Measured values: US20050032873A1, “3-Amino chroman and 2-amino tetralin derivatives” (Wyeth, priority 2003, published 2005)
# Structures can show the parent of a compound that is named as a salt.
row,SMILES,melting point
1,"CCN(CCCCc1coc2c(OC)cccc12)C1COc2c(F)ccc(C(N)=O)c2C1 (stereo not drawn) (as salt: hydrochloride) [Compound 168, 3-{ethyl[4-(7-methoxy-1-benzofuran-3-yl)butyl]amino}-8-fluorochromane-5-carboxamide]",112 to 118 °C
2,"CCCN(CCCCc1coc2c(OC)cccc12)C1COc2c(F)ccc(C(N)=O)c2C1 (stereo not drawn) (as salt: hydrochloride) [Compound 169, 8-fluoro-3-[[4-(7-methoxy-1-benzofuran-3-yl)butyl](propyl)amino]chromane-5-carboxamide]",99 to 110 °C (dec.)
3,"COc1cccc2c(CCCCN(CC3CC3)C3COc4c(F)ccc(C(N)=O)c4C3)coc12 (stereo not drawn) (as salt: hydrochloride) [Compound 170, 3-{(cyclopropylmethyl)[4-(7-methoxy-1-benzofuran-3-yl)butyl]amino}-8-fluorochromane-5-carboxamide]",114 to 120 °C
4,"COc1cccc2c(CCCCN(C3CCC3)C3COc4c(F)ccc(C(N)=O)c4C3)coc12 (stereo not drawn) (as salt: hydrochloride) [Compound 171, 3-{cyclobutyl[4-(7-methoxy-1-benzofuran-3-yl)butyl]amino}-8-fluorochromane-5-carboxamide]",122 to 127 °C (dec.)
5,"CCCN(CCCCc1coc2c(OC)cccc12)[C@H]1COc2c(F)ccc(C(N)=O)c2C1 (as salt: hydrochloride) [Compound 172, (3R)-8-fluoro-3-[[4-(7-methoxy-1-benzofuran-3-yl)butyl](propyl)amino]chromane-5-carboxamide]",103 to 111 °C
6,"NC(=O)c1ccc(F)c2c1CC(NCCCn1ccc3ccccc31)CO2 (stereo not drawn) (as salt: hydrochloride) [Compound 184, 8-Fluoro-3-{[3-(1H-indol-1-yl)propyl]amino}chromane-5-carboxamide]",155 to 156 °C
7,"NC(=O)c1ccc(F)c2c1CC(NCCCCn1ccc3cccc(F)c31)CO2 (stereo not drawn) (as salt: hydrochloride) [Compound 188, 8-Fluoro-3-{[4-(7-fluoro-1H-indol-1-yl)butyl]amino}chromane-5-carboxamide]",166 to 168 °C
8,"CCCN(C1COc2cccc(OC)c2C1)[C@H]1CC[C@@H](c2c[nH]c3ccc(F)cc32)CC1 (relative stereo) (as salt: hydrochloride) [Compound 182, cis-N-[4-(5-fluoro-1H-indol-3-yl)cyclohexyl]-5-methoxy-N-propylchroman-3-amine]",148 °C (dec.)
9,"CCCN(C1COc2cccc(OC)c2C1)[C@H]1CC[C@H](c2c[nH]c3ccc(F)cc32)CC1 (relative stereo) (as salt: hydrochloride) [Compound 183, trans-N-[4-(5-fluoro-1H-indol-3-yl)cyclohexyl]-5-methoxy-N-propylchroman-3-amine]",159 °C (dec.)
10,"NC(=O)c1ccc(F)c2c1CC(NCCCc1c[nH]c3ccc(F)cc13)CO2 (single isomer, unassigned; (+)) (as salt: hydrochloride) [Compound 1a, (+)-8-fluoro-3-{[3-(5-fluoro-1H-indol-3-yl)propyl]amino}chromane-5-carboxamide]",89 °C (dec.)
11,"NC(=O)c1ccc(F)c2c1CC(N(CCCc1c[nH]c3ccc(F)cc13)C1CCC1)CO2 (single isomer, unassigned; (+)) (as salt: hydrochloride) [Compound 4a, (+)-3-{cyclobutyl[3-(5-fluoro-1H-indol-3-yl)propyl]amino}-8-fluorochromane-5-carboxamide]",129 °C (dec.)
12,"NC(=O)c1ccc(F)c2c1CC(NCCCc1c[nH]c3ccc(F)cc13)CO2 (single isomer, unassigned; (-)) (as salt: hydrochloride) [Compound 1b, (−)-8-fluoro-3-{[3-(5-fluoro-1H-indol-3-yl)propyl]amino}chromane-5-carboxamide]",87 °C (dec.)
13,"CCCN(CCCc1c[nH]c2ccc(F)cc12)C1COc2c(F)ccc(C(N)=O)c2C1 (single isomer, unassigned; (-)) (as salt: hydrochloride) [Compound 2a, (−)-8-fluoro-3-[[3-(5-fluoro-1H-indol-3-yl)propyl](propyl)amino]-3,4-dihydro-2H-chromene-5-carboxamide]",126 °C (dec.)
14,"NC(=O)c1ccc(F)c2c1CC(N(CCCc1c[nH]c3ccc(F)cc13)CC1CC1)CO2 (single isomer, unassigned; (-)) (as salt: hydrochloride) [Compound 5a, (−)-3-{(cyclopropylmethyl)[3-(5-fluoro-1H-indol-3-yl)propyl]amino}-8-fluorochromane-5-carboxamide]",123 °C (dec.)

# Other lines, results leading:
row,melting point,SMILES
1,156.5 °C (dec.),"COc1cccc2c1CC(N[C@H]1CC[C@@H](c3c[nH]c4ccc(F)cc43)CC1)CO2 (relative stereo) (as salt: hydrochloride) [Compound 181a, cis-N-[4-(5-fluoro-1H-indol-3-yl)cyclohexyl]-5-methoxychroman-3-amine]"
2,265 °C (dec.),"COc1cccc2c1CC(N[C@H]1CC[C@H](c3c[nH]c4ccc(F)cc43)CC1)CO2 (relative stereo) (as salt: hydrochloride) [Compound 181b, trans-N-[4-(5-fluoro-1H-indol-3-yl)cyclohexyl]-5-methoxychroman-3-amine]"
3,160 to 165 °C,"CC(CCc1c[nH]c2c(F)cc(F)cc12)N(CC1CC1)C1COc2c(F)ccc(C(N)=O)c2C1 (single isomer, unassigned) (as salt: HCl) [Compound 154a, 3-{(cyclopropylmethyl)[3-(5,7-difluoro-1H-indol-3-yl)-1-methylpropyl]amino}-8-fluorochromane-5-carboxamide]"
4,148 to 150 °C,"CCCN(C(C)CCCc1c[nH]c2ccc(F)cc12)C1COc2c(F)ccc(C(N)=O)c2C1 (single isomer, unassigned; (+)) (as salt: hydrochloride) [Compound 14a, (+)-8-fluoro-3-[[4-(5-fluoro-1H-indol-3-yl)-1-methylbutyl](propyl)amino]chromane-5-carboxamide]"
5,135 °C (dec.),"CCN(C(C)CCc1c[nH]c2ccc(F)cc12)C1COc2c(F)ccc(C(N)=O)c2C1 (single isomer, unassigned; (+)) (as salt: hydrochloride) [Compound 16b, (+)-3-{ethyl[3-(5-fluoro-1H-indol-3-yl)-1-methylpropyl]amino}-8-fluorochromane-5-carboxamide]"
6,117 °C (dec.),"CCCN(CCCc1c[nH]c2ccc(F)cc12)C1CCc2c(F)ccc(OC)c2C1 (single isomer, unassigned; (+)) (as salt: hydrochloride) [Compound 51a, (+)-5-fluoro-N-[3-(5-fluoro-1H-indol-3-yl)propyl]-8-methoxy-N-propyl-1,2,3,4-tetrahydro-2-naphthalenamine]"
7,147 to 150 °C,"CCCN(C(C)CCCc1c[nH]c2ccc(F)cc12)C1COc2c(F)ccc(C(N)=O)c2C1 (single isomer, unassigned; (-)) (as salt: hydrochloride) [Compound 14b, (−)-8-fluoro-3-[[4-(5-fluoro-1H-indol-3-yl)-1-methylbutyl](propyl)amino]chromane-5-carboxamide]"
